{"source": "patent US20100094001A1", "about": "“C[…]-IMPROVED CH[…] DERIVATIVE AND PROCESS FOR PRODUCING SAME” (Eisai R&D Management Co., Ltd., priority 2007, published 2010)", "experiment": "Stability experiment for the addition of tri-n-butylamine: sealed storage at 40-50° C., content (purity) by 1H-NMR", "assay_type": "physicochemical", "description": "From the point of view of securing storage stability, for the amount of the first tertiary amine added, at least 2.0 mol % is added based on Compound (6), preferably at least 3.0 mol %, more preferably at least 4.0 mol %, and even more preferably at least 5.0 mol %. Note that evaluation of storage stability can be carried out by calculation of peak area derived from Compound (6) by gas chromatography or high performance liquid chromatography or calculation of integration value by 1H-NMR or P-NMR measurement before and after storage.\nPotassium di-tert-butyl phosphate (6 g), dipotassium hydrogenphosphate (16.6 g), tetrabutylammonium hydrogen sulfate (0.81 g), tert-butyl methyl ether (28 mL) and water (21 mL) were added in a 100 mL two-neck round bottom flask equipped with a thermometer, and stirred under cooling with a water bath. At an internal temperature of 21° C., a solution of chloromethyl chlorosulfonate (5.88 g) dissolved in tert-butyl methyl ether (5.88 mL) was added dropwise over two hours at an internal temperature of 25° C. or lower. After termination of the drop wise addition, the solution was stirred for two hours, water (21 mL) and tert-butyl methyl ether (28 mL) were added thereto, the lower layer was separated and the organic layer was washed with an aqueous solution of 2M dipotassium hydrogen phosphate (21 mL). After washing twice with water (21 mL), bath temperature was set to 35° C., and the solution was concentrated under a reduced pressure to obtain 5.38 g of the title compound (yield: 86%). […]\nAs a result, contents (purity) of respectively 92% and 96% prior to storage were 89% and 70% after sealed storage at 40° C. for 12 hours and further at 50° C. for 12 hours, and were 87% and 0% (completely degraded) after sealed storage further at 50° C. for 10 hours, such that the one added with tri-n-butylamine was stable. The content (purity) was calculated by 1H-NMR measurements with 4-thiomethyl acetophenone as internal standard substance."}
{"smiles": "CC(C)(C)OP(=O)(OCCl)OC(C)(C)C", "note": "[Not added, di-tert-butyl chloromethyl phosphate]", "values": [{"measurement": "Content (%)", "setting": "Initial (prior to storage)", "value": 96, "unit": "%"}, {"measurement": "Content (%)", "setting": "Sealed storage at 40° C. for 12 hours then further at 50° C. for 12 hours", "value": 70, "unit": "%"}, {"measurement": "Content (%)", "setting": "Sealed storage further at 50° C. for 10 hours (after 40° C. 12 hours and 50° C. 12 hours)", "value": 0, "unit": "%"}]}
